The record followed here is PMC9977398, “Next-generation membrane-active glycopeptide antibiotics that also inhibit bacterial cell division” (Chemical Science, 2023).

The subject of one assay is VRE. The assay is described as follows: MIC against VRE (strains taken together). The class given is cell-based. The note with it: ratio of MICs. How it is done: The increase in the carbon content of substituted moieties from six (1) to seven (2 and 3) to ten (5) to twelve (4), increased activity.
VanQAmC14 (10): Yield 65%; HPLC purity 96%; 1H-NMR (400 MHz, DMSO-d6) δ/ppm:
Test compound was assayed in a micro -dilution broth format as per the CLSI guideline. The bacterial freeze dried stock samples were stored at -80 °C. About 5 μL of these stocks were added to 3 mL of the respective broth and the culture was grown for 6 h at 37°C with prior to the experiments. This 6 h grown culture was diluted to give effective cell concentration of 10 5 CFU/mL which was then used for determining MIC. Compounds were serially diluted 2 -fold, in sterile millipore water and 50 μL of these serial dilutions were added to the wells of 96 well plate followed by the addition of about 150 μL of bacterial solution. The plates were then incubated for 18-24 h at 37 °C. The O.D. value at 600 nm was recorded using TECAN (Infinite series, M200 pro) Plate Reade r. Each concentration had triplicate values and the whole experiment was done at least twice and the MIC value was determined by taking the average of triplicate O. D. values for each concentration and plotting it against concentration. The data was then subjected to sigmoidal fitting. From the curve the MIC value was determined, as the point where the O. D. was similar to that of control having no bacteria.

For a further assay, the system named is ΔamiAC MG1655 E. coli. The assay is described as follows: Antibacterial activity against ΔamiAC MG1655 E. coli. It counts as cell-based. The note with it: LB media, 18 h. The procedure: The bacterial amidases help cleave the septum in the final stage of cell division to produce daughter cells.[39] In the absence of amidases, chains of unseparated cells are formed (Fig. 5D). These retain distinct cytoplasmic compartments but share an outer membrane.[39] These cells are known to be hypersensitive to antibiotics and detergents. However, ΔamiAC mutations are resistant to killing by cephalexin.[38] The MIC of VanQAmC10 against the ΔamiAC mutant was reduced to 4 μM, while that of vancomycin was >10 μM. […] This is indicative of impaired cell division. Cell debris due to lysis after compound treatment are also visible. […]
resuspended in prewarmed BMM media. 1:1 BAC light dye was then added to the bacterial suspension and incubated for 5 minutes. The fluorescence in the GFP and Texas red channels was then observed under the microscope. The experiments were performed three times independently and the images are representative of results from three independent experiments. […]
About 6 μl of sample was immobilized on 1% agarose pad . DIC and fluorescence images were obtained at different time intervals using Nikon Eclipse Ti Microscope equipped with Nikon DS-U3 camera through Plan Apo 100×/1.40 oil objective. […]
from 10 μg/mL. The bacteria with compounds and untreated control were incubated for 18 h at 37 ̊C under shaking and OD600 was measured. […]

In a further assay the test system is MRSA. As to the kind of experiment: Antagonization assay with Ac2KAA or lipoteichoic acid. The class given is cell-based, S. aureus. The note with it: for change in MIC in presence of lipoteichoic acid: 100 μg/mL lipoteichoic acid as competing ligand. How it is done: Ac2KAA can act as a competitive ligand to the target of glycopeptide antibiotics and therefore antagonize antibacterial activity. In the presence of 500 μM of Ac2KAA, the activity of VanQAmC10 (8) was reduced by 2-fold. However, the MIC of vancomycin increased from 0.6 μM to >30 μM ([…] increase in MIC) in presence of the same amount of Ac2KAA. The 2-fold reduction in the activity of VanQAmC10 (8) accounts for the loss of activity due to D-Ala–D-Ala binding. This implied that it acted through additional mechanisms that are independent of Ala-D-Ala binding. The presence of the positive charge in VanQAmC10 (8) could result in interactions with the negatively charged components of the bacterial cell wall like teichoic acid. C-terminal trimethyl ammonium modified vancomycin derivative has been reported to bind to teichoic acid.[32] […]
Antagonization of antibacterial activity of AAV-qC10 was determined by addition of 500 μM
N,N՛-diacetyl–L-Lys–D-Ala–D-Ala or 100 μg/mL of lipoteichoic acid to serial dilutions of the […]

For the compound `CNC(CC(C)C)C(=O)NC1C(=O)NC(CC(N)=O)C(=O)NC2C(=O)NC3C(=O)NC(C(=O)NC(C(=O)NCCC[N+](C)(C)Cc4ccc(-c5ccccc5)cc4)c4cc(O)cc(O)c4-c4cc3ccc4O)C(O)c3ccc(c(Cl)c3)Oc3cc2cc(c3OC2OC(CO)C(O)C(O)C2OC2CC(C)(N)C(O)C(C)O2)Oc2ccc(cc2Cl)C1O` (stereo not drawn) [VanQbiph (4)], in the assay on VRE, the “fold enhancement in activity as compared to vancomycin against VRE” value is 40- to 60 fold.

As for `CN[C@H](CC(C)C)C(=O)N[C@H]1C(=O)N[C@@H](CC(N)=O)C(=O)N[C@H]2C(=O)N[C@H]3C(=O)N[C@H](C(=O)N[C@H](C(=O)O)c4cc(O)cc(O)c4-c4cc3ccc4O)[C@H](O)c3ccc(c(Cl)c3)Oc3cc2cc(c3O[C@@H]2O[C@H](CO)[C@@H](O)[C@H](O)[C@H]2O[C@H]2C[C@](C)(N)[C@H](O)[C@H](C)O2)Oc2ccc(cc2Cl)[C@H]1O` [Vancomycin, reference compound], the “MIC against the ΔamiAC mutant” value against ΔamiAC MG1655 E. coli is > 10 µM. Moreover, in the assay on MRSA, the “change in MIC in presence of lipoteichoic acid” value was “no change in the MIC”. In the assay with MRSA (500 μM Ac2KAA, MRSA), the “fold increase in MIC in presence of Ac2KAA” value is > 40 fold. The minimum inhibitory concentration (MIC) with MRSA (Staphylococcus aureus, 500 μM Ac2KAA, MRSA, read-out: MIC in presence of Ac2KAA) is > 30 µM.

As to `CCCCCCCCCCNC(=O)C[N+](C)(C)CCCNC(=O)C1NC(=O)C2NC(=O)C(NC(=O)C3NC(=O)C(CC(N)=O)NC(=O)C(NC(=O)C(CC(C)C)NC)C(O)c4ccc(c(Cl)c4)Oc4cc3cc(c4OC3OC(CO)C(O)C(O)C3OC3CC(C)(N)C(O)C(C)O3)Oc3ccc(cc3Cl)C2O)c2ccc(O)c(c2)-c2c(O)cc(O)cc21` (stereo not drawn) [VanQAmC10 (8)], the “MIC against the ΔamiAC mutant” value against ΔamiAC MG1655 E. coli was found to be 4 µM. Further, the “fold enhancement in activity as compared to vancomycin against VRE” value in the assay on VRE is recorded as ~160 fold. For the same compound, the “change in MIC in presence of lipoteichoic acid” value in the assay on MRSA is listed as “no change in the MIC”. For the same compound, the “fold reduction of activity in presence of Ac2KAA” value with MRSA (500 μM Ac2KAA, MRSA) came to 2 fold.

One may read the MIC as the lowest concentration that inhibits growth of the organism.
